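Values below derive from 48-hour exposures of cells grown in 96-well plates, with endpoints linearly interpolated between the two concentrations bracketing the appropriate inhibition level. The concentration for 50% growth inhibition is given as GI50. TGI denotes the concentration required for complete inhibition of growth.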
Assays:
Assay in all cases: NCI tumour cell line growth inhibition, 48 h
[1] = test system: MOLT-4 leukemia
[2] = test system: SNB-19 CNS
[3] = test system: HOP-92 NSCLC
[4] = test system: MDA-MB-231 breast
[5] = test system: TK-10 renal
[6] = test system: HL-60(TB) leukemia
[7] = test system: OVCAR-5 ovarian
[8] = test system: KM12 colon
[9] = test system: A549 NSCLC
[10] = test system: COLO 205 colon

| SMILES | GI50 [1] [µM] | TGI [1] [µM] | GI50 [2] [µM] | TGI [2] [µM] | GI50 [3] [µM] | TGI [3] [µM] | GI50 [4] [µM] | TGI [4] [µM] | GI50 [5] [µM] | TGI [5] [µM] | GI50 [6] [µM] | TGI [6] [µM] | GI50 [7] [µM] | TGI [7] [µM] | GI50 [8] [µM] | TGI [8] [µM] | GI50 [9] [µM] | TGI [9] [µM] | GI50 [10] [µM] | TGI [10] [µM] |
| --- | --- | --- | --- | --- | --- | --- | --- | --- | --- | --- | --- | --- | --- | --- | --- | --- | --- | --- | --- | --- |
| N#CC1(c2ccc(NC(=O)c3cccnc3NCc3ccncc3)cc2)CCCC1 | 6.26 | 31.9 | 27.7 | > 100 | 19.3 | > 100 | 11.3 | 52.8 | 23.5 | > 74.3 | 11.9 | 45.9 | 22.5 | > 91.8 | 23 | 73 | 17.3 | > 79.7 | 7.43 | 33.5 |
| CC(Br)C(=O)NC(CO)C(=O)O (stereo not drawn) | – | > 100 | – | > 100 | – | > 100 | – | > 100 | – | > 100 | – | > 100 | – | > 100 | – | > 100 | – | > 100 | – | > 100 |
| O=C1/C(=C\c2ccccc2)CN(C(=O)CCN2CCCCC2)C/C1=C/c1ccccc1 | – | 0.714 | – | 4.57 | – | 10.2 | – | 3.29 | – | 10.9 | – | 1.17 | – | 3.96 | – | 1.24 | – | 10.9 | – | 3.83 |
| CC1=C(C(=O)Nc2ccccc2)C(c2ccc(N(C)C)cc2)C(C(=O)Nc2ccccc2)=C(C)N1 | – | > 96.6 | – | > 100 | – | > 94.6 | – | > 100 | – | > 100 | – | 49.4 | – | 99 | – | 27.2 | – | 98.9 | – | 17.3 |
| CC(=O)O[C@H]1C(=O)[C@@]2(C)C([C@H](OC(=O)c3ccccc3)[C@]3(O)C[C@H](OC(=O)[C@H](O)[C@@H](NC(=O)c4ccccc4)c4ccccc4)C(C)=C1C3(C)C)[C@]1(OC(C)=O)CO[C@@H]1C[C@@H]2O (stereo partly drawn) | 0.0152 | > 37.2 | 0.0135 | > 50 | 0.054 | > 50 | 0.0343 | > 50 | – | > 50 | 0.00528 | 0.0209 | 0.0226 | > 50 | < 0.005 | > 50 | < 0.005 | > 50 | < 0.005 | 0.0246 |
| CC(C)(CO)CNC(=O)c1ccc2[nH]c(O)c(N=Nc3ccc(S(N)(=O)=O)cc3)c2c1 | > 25 | > 25 | > 25 | > 25 | > 25 | > 25 | > 25 | > 25 | > 25 | > 25 | > 25 | > 25 | > 25 | > 25 | > 25 | > 25 | > 25 | > 25 | > 25 | > 25 |
| CN[C@@H](C)C(=O)N[C@H]1CN(S(=O)(=O)c2cccc(S(=O)(=O)N3CC[C@H]4CC[C@@H](C(=O)NC(c5ccccc5)c5ccccc5)N4C(=O)[C@@H](NC(=O)[C@H](C)NC)C3)c2)CC[C@H]2CC[C@@H](C(=O)NC(c3ccccc3)c3ccccc3)N2C1=O | 47 | > 100 | 21.2 | 43.6 | 7.71 | 27.4 | < 0.0157 | – | 55.9 | > 100 | 0.0317 | 1.69 | 18.6 | 39.9 | 16.7 | 34.3 | > 53.1 | > 100 | 15.3 | 35.2 |
| COc1ccc2c(c1)c(-c1nc(-c3c[nH]c4ncccc34)cs1)cn2CCCN1CCOCC1 | 1.85 | 4.4 | 2.86 | 8.71 | 2.42 | 6.82 | 1.86 | 4.54 | 3.48 | 13.6 | 2.11 | 4.36 | 2.6 | 7.91 | 2.41 | 6.88 | 4.04 | 13.1 | 1.82 | 3.8 |
| COc1ccc2c(N)ncc(C#Cc3cc(C(=O)Nc4ccc(CN5CCN(C)CC5)c(C(F)(F)F)c4)cnc3C)c2c1 | 0.396 | 1.67 | 0.933 | 2.38 | 0.88 | 3.87 | 0.501 | 1.16 | 0.821 | 2.19 | 1.63 | 11.1 | 1.33 | 3.78 | 0.079 | 2.64 | 0.576 | 1.28 | 0.568 | 4.48 |
| CN(C)CCCC1(c2ccc(F)cc2)OCc2cc(-c3cccc4[nH]ccc34)ccc21 (stereo not drawn) | 1.49 | 3.22 | 1.74 | 3.26 | 1.25 | 2.81 | 1.49 | 2.9 | 1.7 | 3.2 | 1.81 | 3.59 | 1.71 | 3.27 | 1.74 | 3.27 | 1.6 | 3.07 | 1.47 | 2.88 |
| Cc1ccc(O)cc1Nc1ccnc2ccc(S(C)(=O)=O)cc12 | > 19.8 | > 25 | 7.66 | > 25 | 0.0327 | 0.245 | 0.507 | 4.68 | 0.484 | 2.23 | 10.2 | > 25 | 1.41 | 14.5 | > 25 | > 25 | 2.76 | > 25 | 0.47 | 2.83 |
| CCCCCOc1ccc(/C=N/Nc2cc(C)nc3ccc(Cl)cc23)cc1 | 1.65 | 3.36 | 1.87 | 3.41 | 1.47 | 2.96 | 1.71 | 3.23 | 1.77 | 3.16 | 1.64 | 3.36 | 1.82 | 3.23 | 1.79 | 3.41 | 1.9 | 3.52 | 1.89 | 3.61 |
| C[C@]12CC[C@H]3[C@@H](CCC4=CC(=O)CC[C@@]43C)[C@@H]1CC[C@@H]2c1csc(N)n1 | 2.5 | 11.2 | 10.2 | 31.2 | 11 | 28.5 | 8.82 | 28.7 | 11.3 | 43 | 1.65 | 8.18 | 15 | 38.7 | 3 | 11.6 | 5.77 | 31.6 | 3.57 | 14.2 |

— PubChem BioAssay (NCI)
